We go through 8 molecules from patent US9796711B2, “Substituted pyrazolo[3,4-b]pyridin-6-carboxylic acids and method of use” (AbbVie S.àr.l., priority 2015, dated 2017).

The EC50 is the concentration giving half of the maximal effect.

Assay [1] concerns the target T1, ΔF508-CFTR (Homo sapiens, UniProt P13569, DEL508-508).
T1 construct: host or cells: CFBE41o-, doxycycline-inducible
Kind of assay: CFTR cell surface levels using HRP-tagged ΔF508-CFTR expressing CFBE cells, intrinsic corrector capacity. In kind it is cell-based. The following applies: for EC50: read-out: EC50. Put shortly:
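Here the cells express ΔF508-CFTR with horseradish peroxidase inserted in extracellular loop 4, so only rescued channel at the surface gives luminescent signal. Compounds act on their own, 20 h at the reduced temperature of 33 °C; values are percent activity relative to DMSO and a 3 μM corrector.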

In assay [2] the target is T1, ΔF508-CFTR. Kind of assay: CFTR cell surface levels using HRP-tagged ΔF508-CFTR expressing CFBE cells, in the presence of a co-corrector. The assay is classed as cell-based. The following applies: HRP-tagged ΔF508-CFTR expressing CFBE cells, in the presence of 3 μM co-corrector; for EC50: read-out: EC50. An outline of the steps:
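Cells were seeded with 0.5 μg/mL doxycycline and held 68 h at 37 °C. Test compounds plus 3 μM co-corrector (final 0.1% DMSO) were then added for 20 h at 33 °C. Washed cells received HRP substrate, and luminescence was normalized between DMSO and 3 μM co-corrector controls.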

Where [3] appears, read: HRP-tagged ΔF508-CFTR CFBE41o- cells, compounds alone (intrinsic corrector capacity), 20 hours at 33° C., positive control 3 μM corrector.
Setting [4] is: HRP-tagged ΔF508-CFTR CFBE41o- cells, compounds alone (intrinsic corrector capacity), 20 hours at 33° C.
Where [5] appears, read: HRP-tagged ΔF508-CFTR expressing CFBE cells, intrinsic corrector capacity (no co-corrector), 33° C., 20 hours.

T1 sequence (P13569 with tags, fused parts or gaps DEL508-508): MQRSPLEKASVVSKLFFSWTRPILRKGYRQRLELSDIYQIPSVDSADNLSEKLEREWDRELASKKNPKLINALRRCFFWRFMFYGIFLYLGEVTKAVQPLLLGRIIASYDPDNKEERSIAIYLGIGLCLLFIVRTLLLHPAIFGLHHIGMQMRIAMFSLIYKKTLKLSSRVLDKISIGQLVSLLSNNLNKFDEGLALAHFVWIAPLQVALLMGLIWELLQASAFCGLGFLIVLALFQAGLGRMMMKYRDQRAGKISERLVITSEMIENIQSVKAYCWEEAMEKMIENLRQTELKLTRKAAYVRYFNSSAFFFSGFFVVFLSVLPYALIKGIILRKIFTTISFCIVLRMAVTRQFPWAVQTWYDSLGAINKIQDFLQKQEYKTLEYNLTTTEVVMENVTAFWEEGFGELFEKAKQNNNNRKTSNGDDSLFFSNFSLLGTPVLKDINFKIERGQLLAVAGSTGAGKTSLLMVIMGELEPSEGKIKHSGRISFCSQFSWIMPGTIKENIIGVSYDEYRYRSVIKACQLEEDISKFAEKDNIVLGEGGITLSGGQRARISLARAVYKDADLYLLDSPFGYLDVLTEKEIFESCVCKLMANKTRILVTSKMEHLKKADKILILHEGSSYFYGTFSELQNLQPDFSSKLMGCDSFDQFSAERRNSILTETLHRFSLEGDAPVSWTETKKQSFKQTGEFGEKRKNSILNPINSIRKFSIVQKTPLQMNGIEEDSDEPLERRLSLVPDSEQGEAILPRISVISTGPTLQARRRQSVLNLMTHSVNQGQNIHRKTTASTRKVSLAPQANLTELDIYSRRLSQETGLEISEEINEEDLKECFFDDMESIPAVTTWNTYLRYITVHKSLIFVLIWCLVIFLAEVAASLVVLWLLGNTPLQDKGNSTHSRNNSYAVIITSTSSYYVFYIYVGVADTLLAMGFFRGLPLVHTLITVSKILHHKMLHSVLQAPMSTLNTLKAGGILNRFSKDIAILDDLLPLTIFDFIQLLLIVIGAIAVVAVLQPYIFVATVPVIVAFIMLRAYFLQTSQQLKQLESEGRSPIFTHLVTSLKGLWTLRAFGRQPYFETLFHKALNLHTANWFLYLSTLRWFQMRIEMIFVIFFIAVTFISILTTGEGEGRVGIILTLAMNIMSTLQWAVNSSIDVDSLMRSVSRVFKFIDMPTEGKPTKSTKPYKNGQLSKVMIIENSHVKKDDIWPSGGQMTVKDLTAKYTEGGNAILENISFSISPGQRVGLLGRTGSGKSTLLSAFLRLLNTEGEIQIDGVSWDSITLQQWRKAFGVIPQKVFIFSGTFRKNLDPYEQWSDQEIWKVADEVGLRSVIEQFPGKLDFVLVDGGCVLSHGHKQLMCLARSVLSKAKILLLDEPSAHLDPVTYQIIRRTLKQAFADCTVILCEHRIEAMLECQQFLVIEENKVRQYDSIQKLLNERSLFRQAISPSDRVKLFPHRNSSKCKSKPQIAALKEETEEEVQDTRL

`CC(C)c1nn(-c2cccc(N(C)C)c2)c2nc(C(=O)O)cc(N3CCC(C#N)CC3)c12` [compound 329, 4-(4-cyanopiperidin-1-yl)-1-[3-(dimethylamino)phenyl]-3-(propan-2-yl)-1H-pyrazolo[3,4-b]pyridine-6-carboxylic acid]: the “% Activation” value on ΔF508-CFTR [1] (setting [3]) amounted to 239.4%; on ΔF508-CFTR [2], 454.57%. The EC50 on ΔF508-CFTR [1] (setting [4]) stood at 558 nM; on ΔF508-CFTR [2], 307 nM.

On to `CC(C)c1nn(-c2cccc(C(F)(F)F)c2)c2nc(C(=O)O)cc(-c3cnc(N(C)C4CCOCC4)nc3)c12` [compound 281, 4-{2-[methyl(oxan-4-yl)amino]pyrimidin-5-yl}-3-(propan-2-yl)-1[3-(trifluoromethyl)phenyl]-1H-pyrazolo[3,4-b]pyridine-6-carboxylic acid], for which the entries for the “% Activation” value at ΔF508-CFTR [1] (setting [3]) and on ΔF508-CFTR [2] were 226.7% and 425.85%, respectively. The EC50 at ΔF508-CFTR [1] (setting [4]) came to 1290 nM; at ΔF508-CFTR [2], 908 nM.

Turning to `CC1CN(C2CCN(c3cc(C(=O)O)nc4c3c(C3CCC3)nn4-c3ccccc3)CC2)CC(C)O1` (centres unmarked) [compound 688, 3-cyclobutyl-4-[4-(2,6-dimethylmorpholin-4-yl)piperidin-1-yl]-1-phenyl-1H-pyrazolo[3,4-b]pyridine-6-carboxylic acid], the “% Activation” value was 322.5% at ΔF508-CFTR [1] (setting [5]) and 532.6% at ΔF508-CFTR [2]. The EC50 on ΔF508-CFTR [1] (setting [5]) and at ΔF508-CFTR [2] was 247 nM in each case.

In the case of `CC(C)c1nn(C2CCCCC2)c2nc(C(=O)O)cc(-c3cnc(N4CCCC(C#N)C4)nc3)c12` (centres unmarked) [compound 366, 4-[2-(3-cyanopiperidin-1-yl)pyrimidin-5-yl]-1-cyclohexyl-3-(propan-2-yl)-1H-pyrazolo[3,4-b]pyridine-6-carboxylic acid], the entries for the “% Activation” value at ΔF508-CFTR [1] (setting [3]) and at ΔF508-CFTR [2] were 199.1% and 385.85%, respectively. Moreover, the EC50 at ΔF508-CFTR [1] (setting [4]) was 436 nM; at ΔF508-CFTR [2] it was 602 nM.

For `O=C(O)c1cc(N2CCC3(CC2)CC(O)C3)c2c(C3CCC3)nn(-c3ccccc3)c2n1` [compound 543, 3-cyclobutyl-4-(2-hydroxy-7-azaspiro[3.5]nonan-7-yl)-1-phenyl-1H-pyrazolo[3,4-b]pyridine-6-carboxylic acid], on ΔF508-CFTR [1] (setting [5]), the “% Activation” value came to 129.15% and the EC50 turned out to be 304 nM. Also, at ΔF508-CFTR [2], the “% Activation” value came out at 304.9% and the EC50 turned out to be 242 nM.

Turning to `CC(C)c1nn(-c2cccc(N(C)C)c2)c2nc(C(=O)O)cc(-c3ccc(N4CCOCC4)nc3)c12` [compound 85, 1-[3-(dimethylamino)phenyl]-4-[6-(morpholin-4-yl)pyridin-3-yl]-3-(propan-2-yl)-1H-pyrazolo[3,4-b]pyridine-6-carboxylic acid], the “% Activation” value is listed as 314.6% at ΔF508-CFTR [1] (setting [3]) and 504.7% on ΔF508-CFTR [2]. In addition, the values for the EC50 on ΔF508-CFTR [1] (setting [4]) and at ΔF508-CFTR [2] were 920 nM and 702 nM, respectively.

Turning to `Cc1nn(-c2ccccc2)c2nc(C(=O)O)cc(N3CCC4(CC3)CN(C)C(=O)CO4)c12` [compound 288, 3-methyl-4-(4-methyl-3-oxo-1-oxa-4,9-diazaspiro[5.5]undecan-9-yl)-1-phenyl-1H-pyrazolo[3,4-b]pyridine-6-carboxylic acid], the “% Activation” value at ΔF508-CFTR [1] (setting [3]) was found to be 20.49%; on ΔF508-CFTR [2], 128%. Besides, the EC50 on ΔF508-CFTR [1] (setting [4]) and on ΔF508-CFTR [2] was 7500 nM throughout.

Take `CC(C)(C)OC(=O)N1CCC(Oc2nn(-c3ccccc3)c3nc(C(=O)O)cc(-c4ccc(N5CCC(C#N)CC5)nc4)c23)C1` (centres unmarked) [compound 552, 3-{[1-(tert-butoxycarbonyl)pyrrolidin-3-yl]oxy}-4-[6-(4-cyanopiperidin-1-yl)pyridin-3-yl]-1-phenyl-1H-pyrazolo[3,4-b]pyridine-6-carboxylic acid]: on ΔF508-CFTR [1] (setting [5]), the “% Activation” value came to 156.1% and the EC50 was 370 nM. Moreover, at ΔF508-CFTR [2], the “% Activation” value worked out at 396.65% and the EC50 came out at 396 nM.
